According to US7728142B2, “3-methanesulfonylquinolines as GABAB enhancers” (Hoffmann-La Roche Inc., priority 2005, dated 2010):
Like-named read-outs stand apart in the source and are kept apart here.

Assays:
[1] = tested on: panic attacks and symptoms of anxiety; conditions: panic disorder patients; Hamilton, Zung anxiety scales, Katz-R nervousness subscale; cited from earlier work
symptoms of PTSD = conditions: small group of veterans with chronic, combat-related PTSD; cited from earlier work
prepulse inhibition = conditions: rat; cited from earlier work
[2] = in vivo; cited from earlier work
[3] = PO, cited from earlier work
GABABR1R2 = GABABR1R2 (Homo sapiens, UniProt O75899+Q9UBS5); conditions: absence of GABA; cited from earlier work
[4] = tested on: cocaine self-administration; conditions: rats; cited from earlier work
[5] = tested on: Gastro-Esophageal Reflux Disease; conditions: preclinical; cited from earlier work
human GABABR1aR2a [6] = target: T1, human GABABR1aR2a (Homo sapiens, UniProt O75899+Q9UBS5); assay: Intracellular Ca2+ mobilization assay (FLIPR), enhancer concentration-response in presence of 10 nM GABA; type: cell-based; conditions: CHO-GABABR1aR2a-Gα16 cell; for Emax: enhancer 0.001-30 μM in presence of 10 nM GABA (EC10), read-out: Emax (%) at 10 nM GABA alone = 0% 10 μM GABA alone = 100%; for EC50: in presence of 10 nM GABA (EC10)
T1 construct: expressed in transfected cells
Method: (§1) Intracellular Ca^2+ Mobilization Assay
(§2) Chinese Hamster Ovary (CHO) cells stably expressing human GABABR1aR2a and Gα16 were seeded at 5×10^4 cells/well in the poly-D-lysine treated, 96-well, black/clear-bottomed plates (BD Biosciences, Palo Alto, Calif.). 24 h later, the cells were loaded for 90 min at 37° C. with 4 μM Flou-4 acetoxymethyl ester (Catalog No. F-14202, Molecular Probes, Eugene, Oreg.) in loading buffer (1×HBSS, 20 mM HEPES, 2.5 mM Probenecid). Hanks' Balanced Salt Solution (HBSS) (10×) (catalog No. 14065-049) and HEPES (1M) (catalog No. 15630-056) were purchased from Invitrogen, Carlsbad, Calif. Probenecid (250 mM) (catalog No. P8761) was from Sigma, Buchs, Switzerland. The cells were washed five times with loading buffer to remove excess dye and intracellular calcium mobilization, [Ca^2+] was measured using a Fluorometric Imaging Plate Reader (FLIPR, Molecular Devices, Menlo Park, Calif.) as described previously (Porter et al., Br. J. Pharmacol., 128, 13-20, 1999). The enhancers were applied 15 min before the application of the GABA. For GABA shift assay, concentration-response curves of GABA (0.0003-30 μM) were determined in the absence and presence of 10 μM enhancer. The GABA-shift is defined as Log [EC50 (GABA+10 μM enhancer)/EC50 (GABA alone)]. The % maximum enhancing effect (% Emax) and potency (EC50 value) of each enhancer was determined from concentration-response curve of the enhancer (0.001-30 μM) in the presence of 10 nM GABA (EC10). Responses were measured as peak increase in fluorescence minus basal, normalized to the maximal stimulatory effect induced by 10 μM GABA alone (considered 100%) and 10 nM GABA alone (considered 0%). The data were fitted with the equation Y=100+(Max−100)/(1+(EC50/[drug])^n) where Max is the maximum effect, EC50 the concentration eliciting a half-maximum effect and n the Hill slope.

human GABABR1aR2a [7] = target: T1, human GABABR1aR2a; assay: GABA shift assay (Ca2+ mobilization, GABA curves with and without 10 μM enhancer); type: cell-based; conditions: CHO-GABABR1aR2a-Gα16 cell
Method: as §1, §2

anxiety [8] = conditions: cited from earlier work
cognition performance = conditions: passive avoidance, mice and rats; cited from earlier work
anxiety [9] = conditions: elevated plus maze (rat), elevated zero maze (mice and rats), stress-induced hyperthermia (mice); cited from earlier work

T1 sequence (Q9UBS5 15-961 limits assumed): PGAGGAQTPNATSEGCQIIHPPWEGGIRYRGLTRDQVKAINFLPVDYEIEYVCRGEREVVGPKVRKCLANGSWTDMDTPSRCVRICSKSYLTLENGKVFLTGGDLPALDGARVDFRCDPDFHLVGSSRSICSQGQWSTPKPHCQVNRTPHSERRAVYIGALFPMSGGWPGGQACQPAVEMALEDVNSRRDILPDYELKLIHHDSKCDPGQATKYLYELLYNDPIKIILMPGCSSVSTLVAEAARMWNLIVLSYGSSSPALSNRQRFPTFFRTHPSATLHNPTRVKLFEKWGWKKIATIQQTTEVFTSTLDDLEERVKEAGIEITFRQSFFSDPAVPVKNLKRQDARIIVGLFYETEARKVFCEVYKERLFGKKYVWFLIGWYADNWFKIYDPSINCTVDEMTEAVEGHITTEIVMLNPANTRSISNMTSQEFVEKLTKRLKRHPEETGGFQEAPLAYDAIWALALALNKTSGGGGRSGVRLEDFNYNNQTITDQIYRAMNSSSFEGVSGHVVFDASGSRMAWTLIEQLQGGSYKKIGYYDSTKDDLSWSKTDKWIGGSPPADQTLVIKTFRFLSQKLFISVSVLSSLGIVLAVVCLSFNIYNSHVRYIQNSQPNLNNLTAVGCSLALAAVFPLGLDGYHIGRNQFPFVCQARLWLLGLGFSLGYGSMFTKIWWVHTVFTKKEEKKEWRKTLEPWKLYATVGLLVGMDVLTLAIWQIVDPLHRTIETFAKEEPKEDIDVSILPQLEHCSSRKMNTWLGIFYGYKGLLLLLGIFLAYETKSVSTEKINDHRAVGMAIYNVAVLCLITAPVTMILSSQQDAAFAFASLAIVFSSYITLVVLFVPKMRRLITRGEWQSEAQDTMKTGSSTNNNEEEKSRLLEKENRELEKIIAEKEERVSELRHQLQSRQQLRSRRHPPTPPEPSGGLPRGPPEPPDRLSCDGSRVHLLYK
T1 sequence (O75899 42-941): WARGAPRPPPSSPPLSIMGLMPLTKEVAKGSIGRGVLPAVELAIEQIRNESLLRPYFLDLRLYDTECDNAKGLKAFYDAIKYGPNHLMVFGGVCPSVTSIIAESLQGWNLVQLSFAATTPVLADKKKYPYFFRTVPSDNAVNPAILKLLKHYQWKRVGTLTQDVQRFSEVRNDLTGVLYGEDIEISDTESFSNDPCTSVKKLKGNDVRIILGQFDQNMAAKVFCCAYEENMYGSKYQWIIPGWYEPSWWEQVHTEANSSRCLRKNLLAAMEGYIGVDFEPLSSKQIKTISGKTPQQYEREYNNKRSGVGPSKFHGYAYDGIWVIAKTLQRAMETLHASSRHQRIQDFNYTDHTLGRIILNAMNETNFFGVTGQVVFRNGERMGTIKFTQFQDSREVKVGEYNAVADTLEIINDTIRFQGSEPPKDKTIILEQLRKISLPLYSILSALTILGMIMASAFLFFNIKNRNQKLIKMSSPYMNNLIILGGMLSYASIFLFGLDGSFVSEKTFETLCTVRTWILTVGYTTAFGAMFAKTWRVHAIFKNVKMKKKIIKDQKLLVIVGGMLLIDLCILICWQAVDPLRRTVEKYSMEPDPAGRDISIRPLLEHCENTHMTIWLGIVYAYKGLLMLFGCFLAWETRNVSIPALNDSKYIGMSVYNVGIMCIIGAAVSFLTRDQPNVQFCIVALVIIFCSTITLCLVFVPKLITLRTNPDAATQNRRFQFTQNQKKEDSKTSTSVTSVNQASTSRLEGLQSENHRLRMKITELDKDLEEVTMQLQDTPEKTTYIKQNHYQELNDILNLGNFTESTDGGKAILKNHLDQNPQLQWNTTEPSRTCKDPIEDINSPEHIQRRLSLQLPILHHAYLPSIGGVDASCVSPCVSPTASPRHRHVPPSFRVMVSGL
GABABR1R2, sequence (Q9UBS5 20-961): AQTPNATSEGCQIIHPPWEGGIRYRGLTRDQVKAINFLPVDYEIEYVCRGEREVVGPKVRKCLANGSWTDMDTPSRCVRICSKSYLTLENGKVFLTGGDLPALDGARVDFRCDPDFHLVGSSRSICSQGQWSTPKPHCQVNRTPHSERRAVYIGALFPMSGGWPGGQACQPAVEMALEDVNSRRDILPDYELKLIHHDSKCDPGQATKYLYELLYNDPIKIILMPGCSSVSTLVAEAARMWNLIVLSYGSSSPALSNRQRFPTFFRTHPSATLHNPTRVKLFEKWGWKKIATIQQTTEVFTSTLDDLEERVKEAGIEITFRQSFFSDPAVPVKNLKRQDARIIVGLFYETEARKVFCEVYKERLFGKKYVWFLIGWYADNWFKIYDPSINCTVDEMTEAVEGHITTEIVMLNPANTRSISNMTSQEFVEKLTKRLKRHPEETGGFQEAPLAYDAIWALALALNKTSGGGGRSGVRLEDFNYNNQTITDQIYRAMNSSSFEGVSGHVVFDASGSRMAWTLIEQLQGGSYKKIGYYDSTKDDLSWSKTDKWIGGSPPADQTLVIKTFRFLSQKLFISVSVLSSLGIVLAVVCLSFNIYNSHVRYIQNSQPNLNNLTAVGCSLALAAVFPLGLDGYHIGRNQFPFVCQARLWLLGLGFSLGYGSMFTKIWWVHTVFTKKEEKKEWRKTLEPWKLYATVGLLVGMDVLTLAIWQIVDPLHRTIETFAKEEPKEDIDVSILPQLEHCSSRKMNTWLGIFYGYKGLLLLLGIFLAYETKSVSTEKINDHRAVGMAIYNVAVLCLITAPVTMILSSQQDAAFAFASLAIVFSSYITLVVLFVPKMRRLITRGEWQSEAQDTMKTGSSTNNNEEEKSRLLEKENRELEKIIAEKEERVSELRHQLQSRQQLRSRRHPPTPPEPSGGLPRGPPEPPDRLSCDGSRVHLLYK
GABABR1R2, sequence (O75899 42-941): as the sequence (O75899 42-941) above

SMILES	Emax (human GABABR1aR2a [6])	EC50 (human GABABR1aR2a [6])	GABA shift Log [EC50(GABA + 10 μM cp)/EC50(GABA alone)] (human GABABR1aR2a [7])	other results
NCC(CC(=O)O)c1ccc(Cl)cc1 (stereo not drawn) [Baclofen, β-chlorophenyl GABA]				reduction of number of panic attacks and symptoms of anxiety [1]: significantly effective; treatment of PTSD (symptoms of PTSD): effective and well-tolerated treatment; reversal of reduction in prepulse inhibition induced by dizocilpine (prepulse inhibition): able to reverse the reduction in prepulse inhibition; blood-brain-barrier penetration [2]: poor blood-brain-barrier penetration; effect on spontaneous locomotor activity, rotarod, body temperature and traction test ([3]; 2.5-15 mg/kg): showed these side effects
CC(C)(CO)Cc1cc(C(C)(C)C)c(O)c(C(C)(C)C)c1 [CGP7930, 2,6-di-tert-butyl-4-(3-hydroxy-2,2-dimethyl-propyl)-phenol]				effect on their own at GABAB receptors (GABABR1R2): no effect on their own; decrease of cocaine self-administration [4]: effective at decreasing cocaine self-administration; efficacy in GERD [5]: found to be effective
CC(C)(C=O)Cc1cc(C(C)(C)C)c(O)c(C(C)(C)C)c1 [CGP13501]				effect on their own at GABAB receptors (GABABR1R2): no effect on their own
Cc1nc2ccc(OC(F)(F)F)cc2c(-c2ccccc2)c1S(C)(=O)=O [Example 1, 3-Methanesulfonyl-2-methyl-4-phenyl-6-trifluoromethoxy-quinoline]	56%	0.85 µM	−0.7	
CSc1nc(NC2CCCC2)c([N+](=O)[O-])c(NC2CCCC2)n1 [GS39783, N,N_-dicyclopentyl-2-methylsulfanyl-5-nitro-pyrimidine-4,6-diamine]				tolerance after chronic treatment (anxiety [8]; 21 days, 10 mg/kg, P.O., once daily): No tolerance; anxiolytic effects in light-dark box and elevated zero maze (anxiety [8]; acute and chronic treatment): anxiolytic effects; effect on spontaneous locomotor activity, rotarod, body temperature and traction test ([3]; 0.1-200 mg/kg): had no effect; effect on cognition performance (cognition performance): did not have any effect; anxiolytic-like effects (anxiety [9]): exhibited anxiolytic-like effects; decrease of cocaine self-administration [4]: effective at decreasing cocaine self-administration

Further lines, with some results ahead:

Emax (human GABABR1aR2a [6])	EC50 (human GABABR1aR2a [6])	GABA shift Log [EC50(GABA + 10 μM cp)/EC50(GABA alone)] (human GABABR1aR2a [7])	SMILES	other results
30%	2.1 µM	−0.4	Cc1nc2ccc(I)cc2c(N2CCOCC2)c1S(C)(=O)=O [Example 5, 6-Iodo-3-methanesulfonyl-2-methyl-4-morpholin-4-yl-quinoline]	
48%	0.6 µM	−1.2	Cc1nc2ccc(I)cc2c(N2CCCCC2)c1S(C)(=O)=O [Example 9, 6-Iodo-3-methanesulfonyl-2-methyl-4-piperidin-1-yl-quinoline]	
26%	0.8 µM	−0.8	Cc1nc2ccc(I)cc2c(N2CCC[C@@H](O)C2)c1S(C)(=O)=O [Example 11, (R)-1-(6-Iodo-3-methanesulfonyl-2-methyl-quinolin-4-yl)-piperidin-3-ol]	
37%	2.1 µM	−0.45	Cc1nc2ccc(Br)cc2c(-c2ccc(F)cc2)c1S(C)(=O)=O [Example 14, 6-Bromo-4-(4-fluoro-phenyl)-3-methanesulfonyl-2-methyl-quinoline]	
